These compounds were tested against T1, human ferroportin (Homo sapiens, UniProt Q9NP59) (assay: ferroportin internalization assay (inhibition of hepcidin-induced internalization of Fpn)). Settings: MDCK-FPN-HaloTag cells, 100 nM hepcidin, overnight incubation; concentration range from 0.04 to 40 μM.
T1 construct: expressed in transfected cells
T1 sequence (Q9NP59 1-571): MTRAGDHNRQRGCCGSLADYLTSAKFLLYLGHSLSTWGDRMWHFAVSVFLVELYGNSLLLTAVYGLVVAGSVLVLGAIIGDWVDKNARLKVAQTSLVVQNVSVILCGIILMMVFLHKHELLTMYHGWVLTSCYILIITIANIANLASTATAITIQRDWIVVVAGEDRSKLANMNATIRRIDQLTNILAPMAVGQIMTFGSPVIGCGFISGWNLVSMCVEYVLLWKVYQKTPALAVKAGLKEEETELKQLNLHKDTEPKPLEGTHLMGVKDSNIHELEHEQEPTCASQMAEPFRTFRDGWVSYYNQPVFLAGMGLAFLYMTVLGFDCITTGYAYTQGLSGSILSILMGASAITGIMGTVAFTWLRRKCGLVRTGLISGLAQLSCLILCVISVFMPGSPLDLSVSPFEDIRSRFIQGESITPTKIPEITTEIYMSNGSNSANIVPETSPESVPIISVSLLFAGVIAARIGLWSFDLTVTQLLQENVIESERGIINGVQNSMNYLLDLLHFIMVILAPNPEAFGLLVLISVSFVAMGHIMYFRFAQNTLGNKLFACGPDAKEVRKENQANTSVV
Format: cell-based
Method in brief: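 MDCK cells stably expressing human ferroportin–HaloTag were labelled with TMR ligand, then incubated overnight at 37 °C with compound plus 100 nM hepcidin (final). After fixation and nuclear staining, confocal imaging quantified membrane Fpn fluorescence to measure blocking of hepcidin-induced internalization.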

| IC50 | SMILES |
| --- | --- |
| 1390 nM | Cc1cnc2c(NS(=O)(=O)c3cccnc3)cccc2c1 [Example 72, Pyridine-3-sulfonic acid (3-methyl-quinolin-8-yl)-amide] |
| 857 nM | O=S(=O)(Nc1cccc2cccnc12)c1c(Cl)cc(Cl)cc1Cl [Example 47, 2,4,6-Trichloro-N-quinolin-8-yl-benzenesulfonamide] |
| 2900 nM | O=S1(=O)Nc2c(ccc3cccnc23)-c2ccccc21 [Example 2, 5H-6-Thia-4,5-diaza-chrysene 6,6-dioxide] |
| 1810 nM | COc1ccc(S(=O)(=O)Nc2cccc3cccnc23)c([N+](=O)[O-])c1 [Example 34, 4-Methoxy-2-nitro-N-quinolin-8-yl-benzenesulfonamide] |
| 1600 nM | CN1C(c2ccncc2F)c2ccc3cccnc3c2NS1(=O)=O (stereo not shown) [Example 387, 1-(3-Fluoro-pyridin-4-yl)-2-methyl-1,4-dihydro-2H-3-thia-2,4,5-triaza-phenanthrene 3,3-dioxide] |
| 130 nM | O=S1(=O)Nc2c(ccc3cccnc23)-c2cc(C(F)(F)F)ccc21 [Example 78, 9-Trifluoromethyl-5H-6-thia-4,5-diaza-chrysene 6,6-dioxide] |
| 985 nM | O=S(=O)(Nc1cccc2cccnc12)c1cccc(Cl)c1 [Example 20, 3-Chloro-N-quinolin-8-yl-benzenesulfonamide] |
| 419 nM | O=S(=O)(Nc1cccc2cccnc12)c1ccccc1C(F)(F)F [Example 43, N-Quinolin-8-yl-2-trifluoromethyl-benzenesulfonamide] |
| 2010 nM | O=S1(=O)Nc2c(ccc3cccnc23)-c2cc(N3CCC(O)C3)ccc21 (stereo not shown) [Example 506, 1-(6,6-Dioxo-5,6-dihydro-6λ*6*-thia-4,5-diaza-chrysen-9-yl)-pyrrolidin-3-ol] |
| 2000 nM | O=C(NCCN1CCCCC1)c1ccnc2c3c(ccc12)-c1ccccc1S(=O)(=O)N3 [Example 544, 6,6-Dioxo-5,6-dihydro-6λ*6*-thia-4,5-diaza-chrysene-1-carboxylic acid (2-piperidin-1-yl-ethyl)-amide] |
| 1980 nM | COCCNc1ccc2c(c1)-c1cc(Cl)c3cccnc3c1NS2(=O)=O [Example 507, (12-Chloro-6,6-dioxo-5,6-dihydro-6λ*6*-thia-4,5-diaza-chrysen-9-yl)-(2-methoxy-ethyl)-amine] |
| 2760 nM | CN(C)CCOc1cc2c(c3ncccc13)NS(=O)(=O)c1ccccc1-2 [Example 562, [2-(6,6-Dioxo-5,6-dihydro-6λ*6*-thia-4,5-diaza-chrysen-12-yloxy)-ethyl]-dimethyl-amine] |
| 1370 nM | CN1C(c2ccc(C(F)(F)F)cc2)c2ccc3cccnc3c2NS1(=O)=O (stereo not shown) [Example 385, 2-Methyl-1-(4-trifluoromethyl-phenyl)-1,4-dihydro-2H-3-thia-2,4,5-triaza-phenanthrene 3,3-dioxide] |
| 1710 nM | O=S(=O)(Nc1cccc2cccnc12)c1cccc(Cl)c1F [Example 62, 3-Chloro-2-fluoro-N-quinolin-8-yl-benzenesulfonamide] |
| 2830 nM | COCCNc1cc2c(c3ncccc13)NS(=O)(=O)c1ccccc1-2 [Example 548, (6,6-Dioxo-5,6-dihydro-6λ*6*-thia-4,5-diaza-chrysen-12-yl)-(2-methoxy-ethyl)-amine] |
| 988 nM | O=S(=O)(Nc1ccc(F)c2cccnc12)c1ccccc1 [Example 98, N-(5-Fluoro-quinolin-8-yl)-benzenesulfonamide] |
| 4590 nM | O=S(=O)(Nc1cccc2cccnc12)c1ccccc1 [Example 4, N-Quinolin-8-yl-benzenesulfonamide] |
| 550 nM | COCCN(C)c1cc2c(c3ncccc13)NS(=O)(=O)c1ccccc1-2 [Example 554, (6,6-Dioxo-5,6-dihydro-6λ*6*-thia-4,5-diaza-chrysen-12-yl)-(2-methoxy-ethyl)-methyl-amine] |
| 14100 nM | O=S1(=O)Nc2c(cc(C(F)(F)F)c3cccnc23)-c2ccccc21 [Example 311, 12-Trifluoromethyl-5H-6-thia-4,5-diaza-chrysene 6,6-dioxide] |
| 1070 nM | COc1ccc(C2c3ccc4cccnc4c3NS(=O)(=O)N2C)c(OC)c1 (stereo not shown) [Example 394, 1-(2,4-Dimethoxy-phenyl)-2-methyl-1,4-dihydro-2H-3-thia-2,4,5-triaza-phenanthrene 3,3-dioxide] |

| IC50 | SMILES |
| --- | --- |
| 300 nM | Cc1ccc(S(=O)(=O)Nc2cccc3cccnc23)c(N)c1 [Example 14, 2-Amino-4-methyl-N-quinolin-8-yl-benzenesulfonamide] |
| 960 nM | CN1C(c2ccc(C(F)(F)F)nc2)c2ccc3cccnc3c2NS1(=O)=O (stereo not shown) [Example 386, 2-Methyl-1-(6-trifluoromethyl-pyridin-3-yl)-1,4-dihydro-2H-3-thia-2,4,5-triaza-phenanthrene 3,3-dioxide] |
| 5430 nM | CN1C(c2ccc(F)c(C(=O)O)c2)c2ccc3cccnc3c2NS1(=O)=O (stereo not shown) [Example 424, 2-Fluoro-5-(2-methyl-3,3-dioxo-1,2,3,4-tetrahydro-3λ*6*-thia-2,4,5-triaza-phenanthren-1-yl)-benzoic acid] |
| 960 nM | COc1cc2c(c3ncccc13)NS(=O)(=O)c1ccc(C(F)(F)F)cc1-2 [Example 589, 12-Methoxy-9-trifluoromethyl-5H-6-thia-4,5-diaza-chrysene 6,6-dioxide] |
| 2500 nM | O=S(=O)(Nc1cccc2cccnc12)c1ccccc1OC(F)(F)F [Example 36, N-Quinolin-8-yl-2-trifluoromethoxy-benzenesulfonamide] |
| 620 nM | O=S1(=O)Nc2c(cc(Cl)c3cccnc23)-c2cc(NCCN3CCOCC3)ccc21 [Example 511, (12-Chloro-6,6-dioxo-5,6-dihydro-6λ*6*-thia-4,5-diaza-chrysen-9-yl)-(2-morpholin-4-yl-ethyl)-amine] |
| 2620 nM | CN1C(c2ccc(F)c(C(=O)N3CCOCC3)c2)c2ccc3cccnc3c2NS1(=O)=O (stereo not shown) [Example 428, [2-Fluoro-5-(2-methyl-3,3-dioxo-1,2,3,4-tetrahydro-3λ*6*-thia-2,4,5-triaza-phenanthren-1-yl)-phenyl]-morpholin-4-yl-methanone] |
| 3200 nM | Cc1ccc2c(c1)-c1ccc3cccnc3c1NS2(=O)=O [Example 327, 9-Methyl-5H-6-thia-4,5-diaza-chrysene 6,6-dioxide] |
| 9980 nM | CN(C)CCNc1cc2c(c3ncccc13)NS(=O)(=O)c1ccccc1-2 [Example 546, N′-(6,6-Dioxo-5,6-dihydro-6λ*6*-thia-4,5-diaza-chrysen-12-yl)-N,N-dimethyl-ethane-1,2-diamine] |
| 250 nM | CC(=O)c1cc2c(c3ncccc13)NS(=O)(=O)N(C)C2c1ccc(F)cc1 (stereo not shown) [Example 402, 1-[1-(4-Fluoro-phenyl)-2-methyl-3,3-dioxo-1,2,3,4-tetrahydro-3λ*6*-thia-2,4,5-triaza-phenanthren-9-yl]-ethanone] |
| 2190 nM | CCN(CC)c1ccc2c(c1)-c1cc(Cl)c3cccnc3c1NS2(=O)=O [Example 505, (12-Chloro-6,6-dioxo-5,6-dihydro-6λ*6*-thia-4,5-diaza-chrysen-9-yl)-diethyl-amine] |
| 20800 nM | Nc1ccccc1S(=O)(=O)Nc1cccc2cccnc12 [Example 8, 2-Amino-N-quinolin-8-yl-benzenesulfonamide] |
| 15400 nM | Cc1cccc(S(=O)(=O)Nc2cccc3cccnc23)n1 [Example 228, 6-Methyl-pyridine-2-sulfonic acid quinolin-8-ylamide] |
| 8000 nM | O=S(=O)(Nc1cc(F)c(F)c2cccnc12)c1ccccc1 [Example 97, N-(5,6-Difluoro-quinolin-8-yl)-benzenesulfonamide] |
| 1050 nM | O=S(=O)(Nc1ccc(C(F)(F)F)c2cccnc12)c1ccccc1 [Example 91, N-(5-Trifluoromethyl-quinolin-8-yl)-benzenesulfonamide] |
| 4180 nM | COC(=O)c1ccc2c(c1)-c1ccc3cccnc3c1NS2(=O)=O [Example 307, 6,6-Dioxo-5,6-dihydro-6λ*6*-thia-4,5-diaza-chrysene-9-carboxylic acid methyl ester] |
| 5000 nM | CN(C)CCN(C)c1cc2c(c3ncccc13)NS(=O)(=O)c1ccccc1-2 [Example 552, N-(6,6-Dioxo-5,6-dihydro-6λ*6*-thia-4,5-diaza-chrysen-12-yl)-N,N′,N′-trimethyl-ethane-1,2-diamine] |
| 7460 nM | CN(C)CCNC(=O)c1cc(C2c3ccc4cccnc4c3NS(=O)(=O)N2C)ccc1F (stereo not shown) [Example 429, N-(2-Dimethylamino-ethyl)-2-fluoro-5-(2-methyl-3,3-dioxo-1,2,3,4-tetrahydro-3λ*6*-thia-2,4,5-triaza-phenanthren-1-yl)-benzamide] |
| 990 nM | COc1cc2c(c3ncccc13)NS(=O)(=O)c1ccccc1-2 [Example 108, 12-Methoxy-5H-6-thia-4,5-diaza-chrysene 6,6-dioxide] |
| 8560 nM | CN1C(c2ccc(F)c(CNCCN3CCOCC3)c2)c2ccc3cccnc3c2NS1(=O)=O (stereo not shown) [Example 426, [2-Fluoro-5-(2-methyl-3,3-dioxo-1,2,3,4-tetrahydro-3λ*6*-thia-2,4,5-triaza-phenanthren-1-yl)-benzyl]-(2-morpholin-4-yl-ethyl)-amine] |
